Experimental data: patent publication US6828315B1, “1-Amino triazoloc4,3-a! quinazoline-5-ones and/or -5-thiones inhibiting phosphodiesterase IV” (Warner-Lambert LLC, priority 1999, dated 2004)

Legend:
[1] = test system: TNFα production by human leukocytes; assay: Inhibition of TNFα production by human leukocytes stimulated by lipopolysaccharid; assay type: cell-based; details: Leukocyte; LPS-stimulated human leukocytes in 75% human serum; TNFα by ELISA after 15-18 hours
Protocol: This test aims to evaluate capacity of the compounds of the invention to inhibit TNFα (tumor necrosis-α) production by human leukocytes in the presence of high human serum concentration (75%). […] The test described here is based on the use of human leukocytes cultivated in 75% of human serum. It had been previously documented that these conditions simulate the observed situation when TNFα dosage is performed in human blood.
The compounds to test are dissolved into 20 mM (sometimes 6 mM) of DMSO. 100 μl of DMSO are distributed into 7 wells of a a 96 well microtiter plate (wells B to H). 150 μl of the compound solution are distributed into line A wells. 50 μl are then sequentially transferred 7 times. 20 μl of this serial dilutions of compounds are sequentially transferred twice in wells containing 180 μl of RPMI 1640 (Gibco). 50 μl of these dilutions are then transferred in wells where cells will be added.
Each test includes a series of eight wells without LPS (100% of inhibition), eight wells with LPS (0% of inhibition) and a series of Rolipram dilutions in order to enable comparison of the tests between each other and then to evaluate their variability.
A leukocyte vial is unfrozen in bain-marie (37° C.), its content is transferred into a 15 ml tube containing 10 ml of RPMI added with 5% of human serum (RPMI-5% HS). The cells are sedimented (800 g, 6 minutes, 4° C.), resuspended in 10 ml of the same medium and counted by dilution in Trypan blue solution. After centrifugating (800 g, 6 minutes, 4° C.), the cells are resuspended to 2×10^6/ml in human serum.
To 50 μl aliquots of different dilutions of compounds, 100 μl of cells are added. The plates are then incubated 30 minutes at 37° C., then 50 μl of solution 4 μg/ml of LPS prepared in human serum are added. The plates are incubated for the night at 37° C.
After incubation for 15-18 hours, 90 μl of growth supernatant are taken and transferred into rounded-bottom microtiter wells. The TNFα presence is then evaluated by ELISA (Pharmingen) by using 50 μl of supernatant. The protocol described by the manufacturer is strictly applied.

[2] = target: type 4 phosphodiesterases (PDE4); assay: Inhibition of the phosphodiesterase (PDE4), enzymatic preparation from line U937; assay type: biochemical; details: PDE4 from cytosolic preparation of human cell line U937
Protocol: The capacity of the formula (I) compounds of the invention to inhibit the cyclic nucleotide phosphodiesterases is evaluated by their Cl50 measurement (necessary concentration to inhibit 50% of enzymatic activity).
The type 4 phosphodiesterases are obtained from a cytosolic preparation extracted from the human origin cellular line U937 according to a method adapted from T. J. Torphy and al., 1992, J.Pharm.Exp. Ther. 263: 1195-1205
The other classes of phosphodiesterases are obtained after partial purification FPLC on Mono Q column. (anion exchange column) according to a method adapted from Lavan B. E., Lakey T., Houslay M. D. Biochemical Pharmacology, 1989, 38(22), 4123-4136., and from Silver P. J and al., 1988, Eur.J. Pharmacol. 150: 85-94, either, from human origin cellular lines for PDE 1 (monocytar line TPH1) and PDE5 (line MCF7 issued from an adenocarcinoma), or from dog aorta for PDE 3, or for the human PDE3A, from gene cloning in insect cells SF21 in baculovirus, according to a method adapted from Luckow, V. A. and al., 1991 in Recombinant DNA Technology&Applications.,eds. Prokop, Bajpai,R. K.&Ho,C. S., pp97-152. The enzymatic activity measurement of the different PDE classes, and in particular the PDE 4, is performed according to a method adapted from W. J. Thompson and al. 1979, Advances in Cyclic Nucleotide Research, Vol. 10: 69-92, ed. G. Brooker and al. Raven Press, NY.
For the Cl50 determination, the enzymatic activity is measured in the presence of inhibitor within concentration margins of 0.1 to 100 μM.
The following table illustrates the PDE4 inhibitory activity from enzymatic preparation obtained from the line U937.

[3] = test system: TNFα production in plasma; assay: In vivo TNFα model in Wistar rat; details: po, 1.5 h, 10 mg/kg p.o. 30 min before LPS i.p., plasma TNFα 90 min after LPS, male Wistar rats, read-out: % Inhibition to 10 mg/kg
From the text: The TFNα is a cytokin playing a central role in inflammation mechanisms. Its production may be induced by injection of lipopolysaccharid (LPS). It has been shown that the intracellular AMPc increase, produced in particular by PDE4 inhibitors, decreases the TNFα production in in vitro and in vivo models. Therefore it matters here to quantify in vivo anti-inflammatory potential of the compounds of the invention, administrated by oral route (p.o.) by measuring inhibition of TNFα production in plasma in rat, the latter having received a intraperitoneal injection (i.p.) of lipolysaccharid (LPS). The treatment by the compounds of the invention or the carrier is administrated by oral route in male Wistar rats, 30 min. before LPS injection. The rats are sacrificed 90 min. after LPS stimulation, the blood is harvested on EDTA and TNFα concentration is measured in each plasma sample.

[4] = dose of 20 mg as a single intake; cited from earlier work

| Structure (SMILES) | IC50 [1] | IC50 [2] | melting point | change in vivo at 10 mg/kg [3] | adverse events [4] |
| --- | --- | --- | --- | --- | --- |
| Cc1ccc2c(c1)c(=O)n(Cc1ccc(C#N)cc1)c1nnc(N3CCCC3)n21 [Compound 93, 4-(7-Methyl-5-oxo-1-pyrrolidin-1-yl-5H-[1,2,4]triazolo[4,3-a]quinazolin-4-ylmethyl)-benzonitrile] | 4.3 µM |  | 166 °C | -67% |  |
| Cc1ccc2c(c1)c(=O)n(Cc1ccc(C#N)cc1)c1nnc(N(C)C)n21 [Compound 101, 4-(1-Dimethylamino-7-methyl-5-oxo-5H-[1,2,4]triazolo[4,3-a]quinazolin-4-ylmethyl)-benzonitrile] | 8.6 µM |  | 201 °C | -80% |  |
| COc1ccc([C@]2(C#N)CC[C@@H](C(=O)O)CC2)cc1OC1CCCC1 [Ariflo] |  |  |  |  | significant adverse events, of the nausea and vomiting type |
| COc1ccc(Cn2c(=O)c3cc(C)ccc3n3c(N4CCCC4)nnc23)cc1OC [Compound 94, 4-(3,4-Dimethoxy-benzyl)-7-methyl-1-pyrrolidin-1-yl-4H-[1,2,4]triazolo[4,3-a]quinazolin-5-one] | 6.3 µM | 0.029 µM | 184 °C | -87% |  |

Continued, in another order:

| IC50 [1] | IC50 [2] | melting point | Structure (SMILES) | change in vivo at 10 mg/kg [3] | adverse events [4] |
| --- | --- | --- | --- | --- | --- |
| 10.7 µM | 0.039 µM | 171 °C | Cc1ccc2c(c1)c(=O)n(C/C=C/c1ccccc1)c1nnc(N(C)C)n21 [Compound 103, 1-Dimethylamino-7-methyl-4-((E)-3-phenyl-allyl)-4H-[1,2,4]triazolo[4,3-a]quinazolin-5-one] |  |  |
| 3.4 µM | 0.079 µM |  | CN(C)c1nnc2n(C/C=C/c3cccnc3)c(=O)c3cc(Br)ccc3n12 [Compound 3, 7-Bromo-1-dimethylamino-4-((E)-3-pyridin-3-yl-allyl)-4H-[1,2,4]triazolo[4,3-a]quinazolin-5-one] | -98% |  |
| 8.1 µM | 0.077 µM | 155 °C | Cc1ccc2c(c1)c(=O)n(CC=Cc1cccnc1)c1nnc(N(C)C)n21 [Compound 104, 1-Dimethylamino-7-methyl-4-(3-pyridin-3-yl-allyl)-4H-[1,2,4]triazolo[4,3-a]quinazolin-5-one] | -94% |  |
| 5.2 µM | 0.14 µM | 207 °C | CN(C)c1nnc2n(Cc3ccc(C#N)cc3)c(=O)c3cc(Br)ccc3n12 [Compound 79, 4-(7-Bromo-1-dimethylamino-5-oxo-5H-[1,2,4]triazolo[4,3-a]quinazolin-4-ylmethyl)-benzonitrile] | -72% |  |
| 6.8 µM | 0.041 µM | 171 °C | CN(C)c1nnc2n(CC=Cc3ccccc3)c(=O)c3cc(Br)ccc3n12 [Compound 85, 7-Bromo-1-dimethylamino-4-(3-phenyl-allyl)-4H-[1,2,4]triazolo[4,3-a]quinazolin-5-one] | -77% |  |
